According to patent publication US20020049185A1, “Malonic acid based matrix metalloproteinase inhibitors” (ROCHE DIAGNOSTICS GMBH, priority 1994, published 2002):
Residues, ends and D or L forms follow the SMILES beside them. *: point of attachment. NHOH = ON*

The compounds below were run against T1, catalytic domain (Met80-Gly242) of human neutrophil collagenase (Homo sapiens, UniProt P22894) (assay: Enzyme assay: inhibition of cleavage of a fluorogenic substrate by the HNC catalytic domain). Settings: HNC (MMP-8) catalytic domain, 25° C., substrate DNP-Pro-Leu-Gly-Leu-Trp-Ala-D-Arg-NH2.
T1 construct: 8 nM catalytic domain (Met80-Gly242) of human neutrophil collagenase; made in house; host or cells: E. coli
T1 sequence (P22894 100-262): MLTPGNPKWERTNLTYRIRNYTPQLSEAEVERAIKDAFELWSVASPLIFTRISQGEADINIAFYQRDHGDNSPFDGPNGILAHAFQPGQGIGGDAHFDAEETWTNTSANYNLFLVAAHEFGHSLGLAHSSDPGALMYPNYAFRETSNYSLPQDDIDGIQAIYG
Type: biochemical
Experimental: In order to determine the inhibition of MMPs, for example HNC, the catalytic domain (isolation and purification see example 1) is incubated with inhibitors having various concentrations. Subsequently, the initial reaction rate in the conversion of a standard substrate is measured in a manner analogous to F. Grams et al. (1993)^51.
The results are evaluated by plotting the reciprocal reaction rate against the concentration of the inhibitor. The inhibition constant (Ki) is obtained as the negative section of the abscissis by the graphical method according to M. Dixon (1953)^28.
The synthetic collagenase substrate is a heptapeptide which is coupled, at the […], with DNP (dinitrophenol). Said DNP residue quenches by steric hindrance the fluorescence of the adjacent tryptophane of the heptapeptide. After cleavage of a tripeptide which includes the DNP group, the tryptophane fluorescence increases. The proteolytic cleavage of the substrate therefore can be measured by the fluorescence value.
The assay was performed at 25° C. in a freshly prepared 50 mM Tris buffer (pH 8.0) treated with dithiozone to remove traces of heavy metals. 4 mM CaCl2 was added and the buffer saturated wtih argon. Stock solutions of adamalysin II were prepared by centrifugation of the protein from an ammonium sulfate suspension and subsequent dissolution in the assay buffer Stock solutions of collagenase were diluted with the assay buffer. Enzyme concentrations were determined by uv measurements (ε280=2.8·10^4 M^−1 cm^−1, ε288·2.2 10^4 M^−1 cm^−1) and the stock solutions were stored in the cold. This solution was diluted 1 100 to obtain the final 16 nM assay concentration. The fluorogenic substrate DNP-ProLeu-Gly-Leu-Trp-Ala-D-Arg-NH2 with a Km of 52 μM was used at a concentration of 21.4 μM, for the Ki determination a 12.8 μM concentration has also been used. Substrate fluorescence was measured at an excitation and emission wavelength of λ=[…], respectively, on a spectrofluorimeter (Perkin Elmer, Model 650-40) equipped with a thermostated cell holder. Substrate hydrolysis was monitored for 10 min. immediately after adding the enzyme. All reactions were performed at least in triplicate. The Ki values of the inhibitors were calculated from the intersection point of the straight lines obtained by the plots of vo/vi vs. [concentration of inhibitor], whereas IC50 values were calculated from plots of vi/vo [concentration of inhibitor] by non-linear regression with simple robust weighting.
50 mM Tris/HCl pH 7.6 (Tris=Tris-(hydroxymethyl)-aminomethan)
8 nM catalytic domain (Met80-Gly242) of human neutrophil collagenase
10 microM DNP-Pro-Leu-Gly-Leu-Trp-Ala-D-Arg-NH2
A solution of the enzyme and inhibitor in assay buffer (25° C.) was prepared. The reaction was started directly by giving the substrate into the solution. The cleavage of the flourogenic substrate was followed by flourescence spectroscopy with an excitation and emision wavelength of 280 and 350 nm, respectively. The IC50 value was calculated as the inhibitor concentration, which is necessary to decrease the velocity of the reaction to the half in comparison to the reaction without inhibitor.
Compound `CC(C)CC(C(=O)NO)C(=O)NC(C)C(=O)NCc1ccccc1` (mixture of isomers) [ER014, HONH-iBM-Ala-NHBn] has an IC50 of 58 µM.
`CC(C)CC(C(=O)NO)C(=O)NC(CC(N)=O)C(=O)NCc1ccccc1` (mixture of isomers) [ER017, HONH-iBM-Asn-NHBn] gave an IC50 of 63 µM.
In the case of `Cc1ccc(CCNC(=O)C(CCc2ccccc2)NC(=O)C(CC(C)C)C(=O)NO)cc1` (mixture of isomers) [ER070, HONH-iBM-Homophe-NHCH2CH2Ph(p-Me)], the IC50 is reported as 1.6 µM.
With `CC(C)CC(C(=O)NO)C(=O)NC(CO)C(=O)NCC(=O)NCc1ccccc1` (mixture of isomers) [ER059, HONH-iBM-Ser-Gly-NHBn] the IC50 was 61 µM.
`CC(C)CC(C(=O)NO)C(=O)NC(CO)C(=O)NCc1ccccc1` (mixture of isomers) [ER028, HONH-iBM-Ser-NHBn] showed an IC50 of 40 µM.
`CC(C)CC(C(=O)NO)C(=O)NC(Cc1ccccc1)C(=O)NCc1ccccc1` (mixture of isomers) [ER074, HONH-iBM-Phe-NHBn] was tested, and the IC50 was 29 µM.
Compound `CC(C)CC(C(=O)NO)C(=O)N[C@@H](C)C(=O)NCC(N)=O` (stereo partly drawn) [ER029, HONH-2-isobutylmalonyl-L-alanyl glycinamide, reference compound] has an IC50 of 139 µM.
`CC(C)CC(C(=O)NO)C(=O)NC(CC(N)=O)C(=O)NCc1cccc(N)c1` (mixture of isomers) [ER031, HONH-iBM-Asn-NHBn(m-NH2)] showed an IC50 of 30 µM.

These compounds were tested on MMPs (assay: Inhibition of MMPs). Settings: not given.
Type: biochemical
`CC(C)CC(C(=O)NO)C(=O)N[C@@H](C)C(=O)NCC(N)=O` (stereo partly drawn) [ER029, HONH-2-isobutylmalonyl-L-alanyl glycinamide, reference compound] was tested, and the “inhibition of MMPs (in words)” value was “very poorly”.

These compounds were tested against collagenase (Homo sapiens, UniProt P22894) (assay: Affinity for collagenase (statement in text, HNC complex)). Settings: not given.
collagenase, sequence (P22894 101-467): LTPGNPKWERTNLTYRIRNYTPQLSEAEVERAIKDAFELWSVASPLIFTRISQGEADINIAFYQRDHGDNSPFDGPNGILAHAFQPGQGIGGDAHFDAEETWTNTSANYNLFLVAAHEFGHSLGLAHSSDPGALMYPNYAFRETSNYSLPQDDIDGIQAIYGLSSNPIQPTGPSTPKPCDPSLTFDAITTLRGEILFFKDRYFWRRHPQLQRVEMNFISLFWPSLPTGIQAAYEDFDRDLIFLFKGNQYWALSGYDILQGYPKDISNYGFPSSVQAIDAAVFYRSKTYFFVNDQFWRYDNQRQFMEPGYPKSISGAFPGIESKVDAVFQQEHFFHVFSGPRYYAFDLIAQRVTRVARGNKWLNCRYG
Type: binding
For `CC(C)C[C@H](NC(=O)[C@@H]1CCCN1)C(=O)NCC(=O)NO` [PLG-NHOH, L-prolyl-L-leucyl-glycin-hydroxamate] (H-Pro-Leu-Gly-{NHOH}), the “affinity for collagenase (in words)” value was “relatively weak”.
